Among the data in the METLIN SMRT retention time set (Domingo-Almenara et al. 2019) are RP-LC retention time values, retold here.

Each structure is given as a SMILES string.

The nature of the series: gradient 5% acetonitrile 3 min, to 50% in 2 min, to 85% in 15 min, held 3 min, 100 µL/min. The following applies: column: Zorbax Extend-C18 2.1 x 50 mm; eluents: water / acetonitrile, 0.1% formic acid. The method, boiled down:
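Retention times of pure standards were taken from adduct peaks that were selected by computer and manually inspected. Over 3 months, mixtures of ~100 molecules were run by HPLC–quadrupole time-of-flight mass spectrometry in positive and negative ionization mode. The Zorbax Extend-C18 column (2.1 × 50 mm, 1.8 μm) ran at 100 μL/min in water and acetonitrile, each containing 0.1% formic acid, with 40 μL dead volume and 900 μL dwell volume.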
Molecule `CCCNC(=O)N1CCCCCCN(C)C(=O)CC1` returned an RP-LC retention time of 662 s.
On to `N#Cc1cccc(NC(=O)Cn2cccc2-c2nc(-c3ccc4c(c3)OCO4)no2)c1`, for which the RP-LC retention time amounted to 924 s.
For `Cn1cccc(C(=O)NCCn2nc(-c3cccs3)ccc2=O)c1=O` the value was 591 s; for `Cc1cc(C(=O)N2CCCCC2)c2c(=O)n(Cc3ccc4nonc4c3)c(=O)n(C)c2n1`, 902 s.
In turn, `CCN1CCCC1CNC(=O)c1nnc(Cc2cc(OC)c(OC)c(OC)c2)o1` (stereo not drawn) registered an RP-LC retention time of 586 s.
With `CC(=O)Nc1c(C)nn(-c2ccccc2)c1N1CCC(C(=O)N2CCN(c3ccccn3)CC2)CC1`, the RP-LC retention time came out at 569 s.
`Cc1noc(C)c1-c1ccc(S(=O)(=O)NC2CCCCC2)cc1` displayed an RP-LC retention time of 959 s.
On to `Cc1cc(C)c2c(N3CCOCC3)nc(C(=O)NCC3CCCCC3)nc2n1`, for which the RP-LC retention time turned out to be 678 s.
`COc1ccc(C(=O)CSc2nnc(NC(=O)CN(C)S(C)(=O)=O)s2)cc1`: the RP-LC retention time came out at 700 s.
With `CCCC(=O)Nc1ccc(-n2cnc(C(=O)N3CCN(c4ccccc4F)CC3)c2)nc1`, the RP-LC retention time stood at 788 s.
Consider `Cn1nc(CNC(=O)c2ccsc2)c2ccccc21`, for which the RP-LC retention time came out at 735 s.
Take `O=C(Cn1nc2c(Oc3ccccc3)nccn2c1=O)Nc1cc(C(F)(F)F)ccc1Cl`: the RP-LC retention time came out at 960 s.
For `N#Cc1cccc(NC(=O)C2CCN(S(=O)(=O)c3cc(C(=O)N4CCOCC4)cs3)CC2)c1`, the RP-LC retention time is 748 s.
`COc1ccc2c(c1)C1(CCN(S(=O)(=O)c3ccc(F)c(F)c3)C1)C(=O)N2` (stereo not drawn) showed an RP-LC retention time of 837 s.
Regarding `CCN(CC)CCNC(=O)CN1C(=O)C2CCCCN2c2ccc(C(=O)N3CCCC3)cc21` (stereo not drawn), the RP-LC retention time is 614 s.
Molecule `C=CCNC(=O)c1cc(=O)[nH]c2c(Cl)cccc12` registered an RP-LC retention time of 641 s.
To `O=C(C1=NNc2ccccc2S1(=O)=O)N1CCOCC1` belongs 618 s.
`Cc1ccc(-n2nc(N3CCN(C(=O)Nc4ccc(F)cc4)CC3)ccc2=O)cc1` yielded an RP-LC retention time of 803 s.
For `O=S(=O)(NCc1cccs1)c1cc(-c2noc(C3CCCC3)n2)cs1` the value was 1110 s.
To `Cc1cc2c(c(=O)n(-c3ccc(F)cc3)c(=O)n2CC(=O)Nc2ccccc2C(F)(F)F)n1C` belongs 880 s; to `Cc1ccc(CNC(=O)C2(C)Cn3nc(C(=O)NCCN4CCCC4)cc3C(=O)N2C)cc1` (stereo not drawn), 608 s; to `O=C(NCc1nnc(SC/C=C/c2ccccc2)o1)c1ccccc1`, 824 s.
The molecule `Nc1ccc(C(=O)c2cccs2)cn1` had an RP-LC retention time of 634 s.
On to `COc1ccc(CC(=O)N2CCc3cc(-c4ccno4)ccc32)cc1Cl`, for which the RP-LC retention time amounted to 1000 s.
`Cn1cc(NC(=O)Nc2ccc(F)c(F)c2)c2ccccc21` registered an RP-LC retention time of 848 s.
Molecule `COc1ccc(-c2ccc3c(N4CCOC[C@@H]4C)nc(N4CCOC[C@@H]4C)nc3n2)cc1CO` showed an RP-LC retention time of 698 s.
In turn, `CCn1ccc(C(=O)N2CCCC2c2nc(-c3ccc(F)cc3F)no2)n1` (stereo not drawn) yielded an RP-LC retention time of 827 s.
Molecule `CC(C)OCCCNC(=O)CN1C(=O)C2CCCCN2c2ccc(C(=O)N3CCCC3)cc21` (stereo not drawn) displayed an RP-LC retention time of 746 s.
With `CCc1ccc(NC(=O)COc2cc(C)nc(N3CCN(c4ccccc4)CC3)n2)cc1`, the RP-LC retention time was 885 s.
`COc1ccc(-c2nc(N(C)C3CCCCC3)c3ccccc3n2)cc1` showed an RP-LC retention time of 918 s.
`CCOC(=O)C1CCN(c2ncc(S(=O)(=O)c3ccc(CC)cc3)c(N)n2)CC1` registered an RP-LC retention time of 1030 s.
As to `COc1ccc(-c2cc3nc(C)cc(N4CCN(c5nc(C)cc(C)n5)CC4)n3n2)cc1OC`, the RP-LC retention time amounted to 735 s.
For the molecule `Cc1nc(-c2nc3c(s2)CN(C(=O)COc2ccc(Cl)cc2)CC3)cs1`, the RP-LC retention time worked out at 922 s.
